Key:
Test in all cases: DSF 100 kinase selectivity screen;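 also: compound tested at 20 µM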
Type in all cases: binding
[1] = molecular target: T1, ~100 representative kinases (Homo sapiens, UniProt P55201); conditions: Protein BRPF1; average of three replicates
T1 construct: Recombinant protein kinase domains with a concentration of 2 μM
T1 sequence (P55201 1-1214): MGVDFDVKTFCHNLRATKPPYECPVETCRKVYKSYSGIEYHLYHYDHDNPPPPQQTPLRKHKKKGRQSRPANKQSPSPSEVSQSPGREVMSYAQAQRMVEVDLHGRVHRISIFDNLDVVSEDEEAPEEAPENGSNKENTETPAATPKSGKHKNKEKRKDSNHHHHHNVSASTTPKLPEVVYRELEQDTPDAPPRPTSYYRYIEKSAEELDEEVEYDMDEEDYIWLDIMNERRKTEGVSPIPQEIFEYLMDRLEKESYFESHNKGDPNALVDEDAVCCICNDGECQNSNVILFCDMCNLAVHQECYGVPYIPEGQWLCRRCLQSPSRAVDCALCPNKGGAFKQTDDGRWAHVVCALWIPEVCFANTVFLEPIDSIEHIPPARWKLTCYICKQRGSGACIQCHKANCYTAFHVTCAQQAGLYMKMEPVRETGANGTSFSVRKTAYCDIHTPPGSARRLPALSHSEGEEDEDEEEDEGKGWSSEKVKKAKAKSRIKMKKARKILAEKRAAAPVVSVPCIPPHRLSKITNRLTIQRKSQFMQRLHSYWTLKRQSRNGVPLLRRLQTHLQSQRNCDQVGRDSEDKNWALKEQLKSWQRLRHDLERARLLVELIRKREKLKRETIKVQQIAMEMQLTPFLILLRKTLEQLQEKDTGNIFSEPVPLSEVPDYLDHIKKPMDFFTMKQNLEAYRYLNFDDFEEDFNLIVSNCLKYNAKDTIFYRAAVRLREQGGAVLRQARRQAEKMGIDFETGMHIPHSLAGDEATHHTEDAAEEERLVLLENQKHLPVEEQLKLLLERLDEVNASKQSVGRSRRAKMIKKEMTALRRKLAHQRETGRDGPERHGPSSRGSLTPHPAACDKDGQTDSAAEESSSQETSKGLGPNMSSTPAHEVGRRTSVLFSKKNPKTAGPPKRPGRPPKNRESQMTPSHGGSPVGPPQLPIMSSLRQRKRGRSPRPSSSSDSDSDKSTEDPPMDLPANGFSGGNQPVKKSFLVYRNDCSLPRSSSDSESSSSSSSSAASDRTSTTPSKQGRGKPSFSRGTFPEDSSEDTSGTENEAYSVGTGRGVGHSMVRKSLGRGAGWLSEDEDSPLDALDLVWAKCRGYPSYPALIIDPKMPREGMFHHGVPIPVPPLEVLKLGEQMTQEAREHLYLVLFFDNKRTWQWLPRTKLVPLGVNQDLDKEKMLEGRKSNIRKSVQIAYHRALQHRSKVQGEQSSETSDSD
Procedure, shortened: (§1)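 Each kinase domain, at 2 μM, is mixed with 20 μM test compound and SYPRO Orange in Hepes (20 mM, pH 7.5) with 500 mM NaCl. Temperature is then raised at 3°C/min and fluorescence-monitored unfolding yields the melting temperature change, ΔTm in degrees Celsius.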

[2] = molecular target: T2, ~100 representative kinases (Homo sapiens, UniProt Q9H4A3); conditions: Protein WNK1; DSF; average of three replicates
T2 construct: Recombinant protein kinase domains with a concentration of 2 μM
T2 sequence (Q9H4A3 whole entry, the tested form may be a part): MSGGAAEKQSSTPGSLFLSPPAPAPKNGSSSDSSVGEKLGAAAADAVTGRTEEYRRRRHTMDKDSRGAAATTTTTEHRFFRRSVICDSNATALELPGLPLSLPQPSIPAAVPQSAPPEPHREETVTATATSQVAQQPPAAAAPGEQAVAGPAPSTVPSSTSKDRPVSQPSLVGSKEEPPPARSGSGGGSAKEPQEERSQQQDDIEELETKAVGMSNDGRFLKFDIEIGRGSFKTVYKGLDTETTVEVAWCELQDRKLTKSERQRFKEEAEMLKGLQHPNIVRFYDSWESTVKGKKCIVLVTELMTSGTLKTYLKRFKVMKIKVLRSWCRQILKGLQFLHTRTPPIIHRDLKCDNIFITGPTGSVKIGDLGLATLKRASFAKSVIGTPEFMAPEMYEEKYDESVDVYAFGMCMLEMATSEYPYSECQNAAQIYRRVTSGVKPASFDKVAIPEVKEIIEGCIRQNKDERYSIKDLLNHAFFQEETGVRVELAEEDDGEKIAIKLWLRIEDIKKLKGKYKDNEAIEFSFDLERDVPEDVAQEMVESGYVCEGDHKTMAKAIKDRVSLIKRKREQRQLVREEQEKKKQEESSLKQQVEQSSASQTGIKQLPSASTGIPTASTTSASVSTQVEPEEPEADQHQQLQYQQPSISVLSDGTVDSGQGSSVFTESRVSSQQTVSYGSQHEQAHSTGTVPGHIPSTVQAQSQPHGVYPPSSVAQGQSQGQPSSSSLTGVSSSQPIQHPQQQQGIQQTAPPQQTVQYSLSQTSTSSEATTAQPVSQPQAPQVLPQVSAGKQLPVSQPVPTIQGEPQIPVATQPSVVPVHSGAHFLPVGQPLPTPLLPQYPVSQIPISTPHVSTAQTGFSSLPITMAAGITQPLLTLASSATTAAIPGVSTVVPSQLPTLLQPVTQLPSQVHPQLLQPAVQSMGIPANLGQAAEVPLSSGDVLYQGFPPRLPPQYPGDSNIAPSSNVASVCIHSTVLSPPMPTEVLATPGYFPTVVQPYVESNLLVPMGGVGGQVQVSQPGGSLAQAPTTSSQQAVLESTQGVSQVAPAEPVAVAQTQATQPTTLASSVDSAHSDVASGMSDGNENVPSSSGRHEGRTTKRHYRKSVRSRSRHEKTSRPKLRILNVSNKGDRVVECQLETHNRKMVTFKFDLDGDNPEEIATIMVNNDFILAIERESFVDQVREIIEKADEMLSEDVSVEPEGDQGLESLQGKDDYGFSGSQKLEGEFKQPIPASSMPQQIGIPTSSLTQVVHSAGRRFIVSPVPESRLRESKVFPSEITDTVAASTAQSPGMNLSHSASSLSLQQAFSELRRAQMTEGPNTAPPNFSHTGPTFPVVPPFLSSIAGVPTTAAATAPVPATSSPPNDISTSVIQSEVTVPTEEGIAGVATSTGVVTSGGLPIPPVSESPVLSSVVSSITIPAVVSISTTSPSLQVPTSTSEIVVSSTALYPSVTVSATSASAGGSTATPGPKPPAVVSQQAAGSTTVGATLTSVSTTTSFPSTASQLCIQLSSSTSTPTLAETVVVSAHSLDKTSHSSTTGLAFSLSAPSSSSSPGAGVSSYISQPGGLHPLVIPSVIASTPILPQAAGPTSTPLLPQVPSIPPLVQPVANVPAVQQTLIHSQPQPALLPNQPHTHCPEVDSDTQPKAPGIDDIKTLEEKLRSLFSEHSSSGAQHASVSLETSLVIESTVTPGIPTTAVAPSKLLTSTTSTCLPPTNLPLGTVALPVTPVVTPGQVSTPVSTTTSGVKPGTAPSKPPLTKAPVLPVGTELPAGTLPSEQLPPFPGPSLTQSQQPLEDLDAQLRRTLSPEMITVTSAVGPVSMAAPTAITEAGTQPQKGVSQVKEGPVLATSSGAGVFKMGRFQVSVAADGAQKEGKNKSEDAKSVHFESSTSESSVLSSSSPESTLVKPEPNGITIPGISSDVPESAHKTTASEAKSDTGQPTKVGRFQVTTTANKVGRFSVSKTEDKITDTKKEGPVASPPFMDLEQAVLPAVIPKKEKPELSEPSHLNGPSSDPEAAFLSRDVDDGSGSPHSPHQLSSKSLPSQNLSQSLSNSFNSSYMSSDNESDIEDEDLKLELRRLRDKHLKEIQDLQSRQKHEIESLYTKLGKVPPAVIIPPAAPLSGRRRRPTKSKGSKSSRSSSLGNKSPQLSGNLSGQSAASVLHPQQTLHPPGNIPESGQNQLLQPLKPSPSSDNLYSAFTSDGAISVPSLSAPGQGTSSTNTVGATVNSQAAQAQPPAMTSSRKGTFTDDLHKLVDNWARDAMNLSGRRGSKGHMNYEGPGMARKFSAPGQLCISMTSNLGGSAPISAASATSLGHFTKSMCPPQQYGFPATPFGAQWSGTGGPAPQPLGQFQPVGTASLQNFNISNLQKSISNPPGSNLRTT
Procedure, shortened: as §1

[3] = molecular target: T3, ~100 representative kinases (Homo sapiens, UniProt Q13043); conditions: Protein STK4; DSF; average of three replicates
T3 construct: Recombinant protein kinase domains with a concentration of 2 μM
T3 sequence (Q13043 1-487): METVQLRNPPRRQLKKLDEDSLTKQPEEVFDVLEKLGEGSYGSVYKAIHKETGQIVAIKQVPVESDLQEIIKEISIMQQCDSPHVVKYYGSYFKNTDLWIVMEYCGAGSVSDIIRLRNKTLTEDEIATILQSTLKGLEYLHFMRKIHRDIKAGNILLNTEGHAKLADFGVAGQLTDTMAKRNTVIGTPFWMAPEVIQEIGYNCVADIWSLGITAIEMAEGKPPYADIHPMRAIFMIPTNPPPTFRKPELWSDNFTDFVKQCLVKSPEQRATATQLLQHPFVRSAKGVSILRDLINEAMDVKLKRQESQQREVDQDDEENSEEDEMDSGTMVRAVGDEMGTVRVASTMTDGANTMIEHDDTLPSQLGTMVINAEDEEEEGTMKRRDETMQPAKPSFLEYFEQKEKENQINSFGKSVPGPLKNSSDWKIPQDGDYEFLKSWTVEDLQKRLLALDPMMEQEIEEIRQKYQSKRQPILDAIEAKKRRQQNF
Procedure, shortened: as §1

Compound	dTm [1] [K]	dTm [2] [K]	dTm [3] [K]
Cc1ccc(C(=O)Nc2ccc(CN3CCN(C)CC3)c(C(F)(F)F)c2)cc1C#Cc1c[nH]c2ncnc(N3CCOCC3)c12 [Compound 1]	-0.28	1.39	7.61
O=C(Nc1ccc(F)cc1)C1(C(=O)Nc2cccc(-c3c[nH]c4ncnc(N5CCOCC5)c34)c2)CC1 [Compound 2]	0.13	-0.45	5.05
O=C(Nc1cccc(-c2c[nH]c3ncnc(N4CCOCC4)c23)c1)c1cccn(-c2ccc(F)cc2)c1=O [Compound 4]	-1.48	-0.00745	7.31
Cc1cc(NC(=O)C2(C(=O)Nc3ccc(F)cc3)CC2)cc(-c2c[nH]c3ncnc(N4CCOCC4)c23)c1 [Compound 6]	0.87	0.73	0.00
O=C(Nc1cccc(-c2c[nH]c3ncnc(N4CCOCC4)c23)c1)C1(C(=O)Nc2cccc3c2CCC3)CC1 [Compound 11]	1.49	0.35	-11.70
O=C(Nc1ccccc1)C1(C(=O)Nc2cccc(-c3c[nH]c4ncnc(N5CCOCC5)c34)c2)CC1 [Compound 12]	-0.42	-0.065	4.49
O=C(Nc1ccc(Cl)cc1)C1(C(=O)Nc2cccc(-c3c[nH]c4ncnc(N5CCOCC5)c34)c2)CC1 [Compound 13]	-0.65	0.30	7.95
Cc1ccc(NC(=O)C2(C(=O)Nc3cccc(-c4c[nH]c5ncnc(N6CCOCC6)c45)c3)CC2)cc1 [Compound 14]	-0.72	0.16	4.82
CCc1ccc(NC(=O)C2(C(=O)Nc3cccc(-c4c[nH]c5ncnc(N6CCOCC6)c45)c3)CC2)cc1 [Compound 15]	-0.75	0.33	5.52
COc1ccc(NC(=O)C2(C(=O)Nc3cccc(-c4c[nH]c5ncnc(N6CCOCC6)c45)c3)CC2)cc1 [Compound 16]	-0.96	-0.0251	2.68
O=C(Nc1cccc(-c2c[nH]c3ncnc(N4CCOCC4)c23)c1)C1(C(=O)Nc2ccc(F)c(F)c2)CC1 [Compound 17]	0.79	0.57	5.12
O=C(Nc1cccc(-c2c[nH]c3ncnc(N4CCOCC4)c23)c1)C1(C(=O)Nc2ccc(F)c(Cl)c2)CC1 [Compound 18]	1.47	1.16	6.48
O=C(Nc1cccc(-c2c[nH]c3ncnc(N4CCOCC4)c23)c1)C1(C(=O)Nc2ccc(F)c(Br)c2)CC1 [Compound 19]	2.17	0.64	0.00
Cc1cc(NC(=O)C2(C(=O)Nc3cccc(-c4c[nH]c5ncnc(N6CCOCC6)c45)c3)CC2)ccc1F [Compound 20]	0.26	0.02	7.44
COc1cc(NC(=O)C2(C(=O)Nc3cccc(-c4c[nH]c5ncnc(N6CCOCC6)c45)c3)CC2)ccc1F [Compound 21]	-0.32	-0.19	3.89
CC(C)(C)c1cccc(NC(=O)C2(C(=O)Nc3cccc(-c4c[nH]c5ncnc(N6CCOCC6)c45)c3)CC2)c1 [Compound 22]	1.91	-1.93	5.49
O=C(Nc1cccc(-c2c[nH]c3ncnc(N4CCOCC4)c23)c1)C1(C(=O)Nc2ccc(F)cc2F)CC1 [Compound 23]	0.18	-0.34	4.75

Compound	dTm [1] [K]	dTm [2] [K]	dTm [3] [K]
Cc1cc(F)ccc1NC(=O)C1(C(=O)Nc2cccc(-c3c[nH]c4ncnc(N5CCOCC5)c34)c2)CC1 [Compound 24]	-0.10	-0.0334	4.47
O=C(Nc1cccc(-c2c[nH]c3ncnc(N4CCOCC4)c23)c1)C1(C(=O)Nc2cc(Br)c(F)cc2F)CC1 [Compound 25]	1.93	1.20	0.00
O=C(Nc1cccc(-c2c[nH]c3ncnc(N4CCOCC4)c23)c1)C1(C(=O)Nc2ccc(F)c(Br)c2F)CC1 [Compound 26]	1.97	1.13	0.00
O=C(Nc1cc(F)cc(Br)c1)C1(C(=O)Nc2cccc(-c3c[nH]c4ncnc(N5CCOCC5)c34)c2)CC1 [Compound 27]	2.67	0.64	0.00
CC(C)(C)c1cc(NC(=O)Nc2cccc(-c3c[nH]c4ncnc(N5CCOCC5)c34)c2)n(-c2ccc3ncccc3c2)n1 [Compound 28]	0.57	1.32	8.26
Cc1ccc(-n2nc(C(C)(C)C)cc2NC(=O)Nc2cccc(-c3c[nH]c4ncnc(N5CCOCC5)c34)c2)cc1 [Compound 29]	0.08	1.43	8.44
Cc1ccc(-n2nc(C(C)(C)C)cc2NC(=O)Nc2cccc(-c3c[nH]c4nc(Cl)nc(N5CCOCC5)c34)c2)cc1 [Compound 30]	-1.99	-0.58	4.23
CC(=O)N1CCN(c2nc(Cl)nc3[nH]cc(-c4cccc(NC(=O)Nc5cc(C(C)(C)C)nn5-c5ccc(C)cc5)c4)c23)CC1 [Compound 31]	-0.70	0.46	4.59
CCSc1nc(NC)c2c(-c3cccc(NC(=O)Nc4cc(C(C)(C)C)nn4-c4ccc(C)cc4)c3)c[nH]c2n1 [Compound 32]	-0.60	0.83	0.80
COc1cc(C(=O)N2CCOCC2)c(F)cc1Nc1nc(N(C)C)c2c(Cl)c[nH]c2n1 [Compound 36]	-1.63	0.40	-1.57
COc1cc(S(C)(=O)=O)ccc1Nc1nc(N(C)C)c2c(Cl)c[nH]c2n1 [Compound 37]	-0.21	0.04	-0.52
COc1cc2c(Oc3ccc(NC(=O)C4(C(=O)Nc5ccc(F)cc5)CC4)cc3F)ccnc2cc1OCCCN1CCOCC1 [Foretinib, reference compound]	0.26	1.01	8.95
CCNc1nc(Nc2cc(F)c(C(=O)N3CCOCC3)cc2OC)ncc1C(F)(F)F [GNE-7915]	-1.14	-0.0645	0.31
Cc1ccc(C(=O)Nc2ccc(CN3CCN(C)CC3)c(C(F)(F)F)c2)cc1C#Cc1cnc2[nH]ncc2c1 [GZD-824, reference compound]	-0.65	0.53	4.50
C[C@@H]1CN(c2cc(-c3n[nH]c4ccc(OC5(C)CC5)cc34)ncn2)C[C@H](C)O1 [MLi2]	-1.36	0.19	-0.67
CNC(=O)c1cc(Oc2ccc(NC(=O)Nc3cc(C(C)(C)C)nn3-c3ccc4ncccc4c3)c(F)c2)ccn1 [Rebastinib, reference compound]	1.88		7.33
CN[C@@H]1C[C@H]2O[C@@](C)([C@@H]1OC)n1c3ccccc3c3c4c(c5c6ccccc6n2c5c31)C(=O)NC4 [Staurosporine]		2.20	

From article PMC12136037, “Type II kinase inhibitors that target Parkinson’s disease–associated LRRK2” (Science Advances, 2025)
